Assay results taken from US9770451B2, “Composition including ATM inhibitor for reducing cellular senescence and use of the composition” (Samsung Electronics Co., Ltd., priority 2014, dated 2017).

How the values were obtained:
[1] = test system: progeria senescent fibroblasts (passage 17); test: Mitochondrial membrane potential (JC-1); format: cell-based, human; conditions: CP-466722 0.1 μM
Procedure: The mitochondrial activity potential (i.e., mitochondrial membrane potential) was measured according to the protocol of the manufacturer of the MitoProbe™ JC-1 assay kit for flow cytometry (Life technologies: T3168). […] Consequently, mitochondrial depolarization is indicated by a decrease in the red/green fluorescence intensity ratio. The cultured cells were analyzed by flow cytometry by using an FACSCaliber (Beckton Dickinson) using excitation at a wavelength of 488 nm, and band-pass emission light filters at a wavelength of 530/30 nm and 585/42 nm. The results were analyzed using Cell Quest 3.2 software (Beckton Dickinson). FIG. 12 is a graph showing results of measuring mitochondrial activity potential (B) of the cultured cells. […]
The mitochondrial activity potential (i.e., mitochondrial membrane potential) was measured according to the protocol of the manufacturer using the MitoProbe™ JC-1 assay kit for flow cytometry (Life technologies: T3168). […] Consequently, mitochondrial depolarization is indicated by a decrease in the red/green fluorescence intensity ratio. The cultured cells were analyzed by flow cytometry by using an FACSCaliber (Beckton Dickinson) using excitation at a wavelength of 488 nm, and band-pass emission light filters at a wavelength of 530/30 nm and 585/42 nm. The results were analyzed using Cell Quest 3.2 software (Beckton Dickinson).

[2] = test system: senescent fibroblasts (passage 37); test: Cell proliferation and formation of cell colonies (crystal violet staining); format: cell-based, human; conditions: CP-466722; staining after 4 days
Procedure: A human fibroblast cell line was inoculated into a Dulbecco's Modified Eagle's medium (DMEM) containing 10% fetal bovine serum (FBS), 100 units/ml of penicillin, and 100 μg/ml of streptomycin (wherein these two antibiotics were purchased from Gibro-BRL, Grand Island, N.Y.), and then, cultured in a 5% CO2 incubator at a temperature of 37° C. The fibroblast cell line (i.e., M11 strain) was a cell line derived from the foreskin of a child. When the cells were grown to about 85% confluency in a plate, the cells were subjected to subculture. The early subculture was carried out at a split ratio of 1:4, and the late subculture was carried out at a split ratio of 1:2. When the cell doubling time was 14 days, the cells were considered to be senescent fibroblasts (passages 35 to 37).
To determine the optimal concentration upon the treatment with an ATM-kinase inhibitor KU-60019 (SELLECKCHEM, S1570, salt), the senescent fibroblasts (passage 37) were inoculated into each well of a 6-well plate at a concentration of 2,000 cells/well, and then, KU-60019 was added to each well of the 6-well plate ([…]). In addition, as a negative control group, the cells were cultured under the same conditions as described above, except that a medium used herein contained a dimethyl sulfoxide (DMSO) (0.05 (v/v) %) medium. […]

SMILES: COc1cc2ncnc(-n3nc(-c4ccccn4)nc3N)c2cc1OC [CP-466722, 2-(6,7-dimethoxyquinazolin-4-yl)-5-(pyridin-2-yl)-2H-1,2,4-triazol-3-amine]
- mitochondrial activity potential vs control [1]: significantly increased
- concentration producing best results in the cell proliferation and the formation of cell colonies [2]: 0.1 µM
